Earlier results, collected in patent US8217079B2 (priority 2010, dated 2012).

Tested on: PVR-1 gene expression
Settings: sub-micromolar concentrations; peripheral blood of JAK2^V617F PV patients; cited from earlier work

In the case of CCN(CC)Cc1ccc2cc(COC(=O)Nc3ccc(C(=O)NO)cc3)ccc2c1.Cl [ITF2357, Diethyl-[6-(4-hydroxycarbamoyl-phenylcarbamoyloxymethyl)-naphthalen-2-ylmethyl]-ammonium chloride], the “PVR-1 gene expression in granulocytes” value is given as “down-modulate”.
